IC50 data for 38 compounds are collected here from patent US12018016B2, “Aryl sulfonyl (hydroxy) piperidines as CCR6 inhibitors” (CHEMOCENTRYX, INC., priority 2021, dated 2024).

Some results are limits rather than exact numbers.

The target in this experiment is T1, human CCR6 (Homo sapiens, UniProt P51684).
T1 construct: expressed in transfected cells; host or cells: Ba/F3 cells (mouse pro-B line)
T1 sequence (P51684 1-374): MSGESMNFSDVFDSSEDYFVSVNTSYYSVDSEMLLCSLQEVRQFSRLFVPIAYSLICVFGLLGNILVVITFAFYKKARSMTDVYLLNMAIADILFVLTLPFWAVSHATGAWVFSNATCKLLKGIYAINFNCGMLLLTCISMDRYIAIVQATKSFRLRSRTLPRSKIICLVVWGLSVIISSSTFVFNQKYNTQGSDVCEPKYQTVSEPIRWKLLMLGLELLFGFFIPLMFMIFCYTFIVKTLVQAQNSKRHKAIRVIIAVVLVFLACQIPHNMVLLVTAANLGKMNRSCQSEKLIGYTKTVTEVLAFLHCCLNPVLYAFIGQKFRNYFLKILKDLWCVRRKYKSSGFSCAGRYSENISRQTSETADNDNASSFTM
The experiment is described as follows: Migration assay (chemotaxis, ChemoTX). In kind it is cell-based. The settings on record: hCCR6-transfected Ba/F3 cells in human serum, migration to recombinant human CCL20 10 nM, 37° C. 45 minutes; read-out: Potency (IC50 value in the migration assay). The essentials: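 Ba/F3 cells transfected with human CCR6 and butyrate-primed for 24 h were suspended at 4 million/ml in human serum with compound, serially diluted from a 1 μM final top concentration. Cells migrated through a 5-μm polycarbonate membrane toward 10 nM human CCL20 for 45 min at 37 °C. Migrated cells were quantified by CyQUANT fluorescence.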
Regarding `O=S(=O)(c1ccc(-c2ccc(N3CC[C@H](O)C3)nc2)cc1)N1CC[C@@H](Nc2ccc(C(F)(F)F)cn2)[C@@H](O)C1` [Compound 175], the IC50 was less than 1 nM. Consider `O=S(=O)(c1ccc(-c2ccc(N3CC[C@@H](O)C3)nc2)cc1)N1CC[C@@H](Nc2ccc(C(F)(F)F)cn2)[C@@H](O)C1` [Compound 176], for which the IC50 was less than 1 nM.

`CN(C)C1CN(c2cc(-c3ccc(S(=O)(=O)N4CC[C@@H](Nc5ccc(C(F)(F)F)cn5)[C@@H](O)C4)cc3)ccn2)C1` [Compound 177]: the IC50 lay within 1 to 10 nM. The result for `O=C1CN(c2ccc(-c3ccc(S(=O)(=O)N4CC[C@@H](Nc5ccc(C(F)(F)F)cn5)[C@@H](O)C4)cc3)cn2)CCN1` [Compound 178] reads less than 1 nM. On to `O=C1CNCCN1c1ccc(-c2ccc(S(=O)(=O)N3CC[C@@H](Nc4ccc(C(F)(F)F)cn4)[C@@H](O)C3)cc2)cn1` [Compound 179], for which the IC50 was less than 1 nM. As for `O=c1[nH]ncc2ccc(-c3ccc(S(=O)(=O)N4CC[C@@H](Nc5ccc(C(F)(F)F)cn5)[C@@H](O)C4)cc3)cc12` [Compound 180], the IC50 is less than 1 nM. The same measure for `NS(=O)(=O)c1cc(-c2ccc(S(=O)(=O)N3CC[C@@H](Nc4ccc(C(F)(F)F)cn4)[C@@H](O)C3)cc2)ccn1` [Compound 181]: less than 1 nM. Turning to `COc1c(-c2ccc(S(=O)(=O)N3CC[C@@H](Nc4ccc(C(F)(F)F)cn4)[C@@H](O)C3)cc2)ccnc1C(N)=O` [Compound 182], the IC50 was less than 1 nM. The same measure for `Cc1ncc(C(N)=O)cc1-c1ccc(S(=O)(=O)N2CC[C@@H](Nc3ccc(C(F)(F)F)cn3)[C@@H](O)C2)cc1` [Compound 183]: less than 1 nM; for `Cc1c(C(N)=O)cncc1-c1ccc(S(=O)(=O)N2CC[C@@H](Nc3ccc(C(F)(F)F)cn3)[C@@H](O)C2)cc1` [Compound 184]: less than 1 nM.

With `Cc1cncc(C)c1-c1ccc(S(=O)(=O)N2CC[C@@H](Nc3ccc(C(F)(F)F)cn3)[C@@H](O)C2)cc1` [Compound 185], the IC50 is less than 1 nM. The result for `CN(C)C(=O)N1Cc2ccc(-c3ccc(S(=O)(=O)N4CC[C@@H](Nc5ccc(C(F)(F)F)cn5)[C@@H](O)C4)cc3)cc2C1` [Compound 186] reads less than 1 nM; that for `CNC(=O)N1Cc2ccc(-c3ccc(S(=O)(=O)N4CC[C@@H](Nc5ccc(C(F)(F)F)cn5)[C@@H](O)C4)cc3)cc2C1` [Compound 187], less than 1 nM. Consider `CNC(=O)N1Cc2cc(-c3ccc(S(=O)(=O)N4CC[C@@H](Nc5ccc(C(F)(F)F)cn5)[C@@H](O)C4)cc3)cc(C)c2C1` [Compound 188], for which the IC50 was less than 1 nM. Consider `O=S(=O)(c1ccc(-c2cnc3c(O)nccc3c2)cc1)N1CC[C@@H](Nc2ccc(C(F)(F)F)cn2)[C@@H](O)C1` [Compound 190], for which the IC50 was less than 1 nM. As for `O=S(=O)(c1ccc(-c2cnc3[nH]nc(-c4ncc[nH]4)c3c2)cc1)N1CC[C@@H](Nc2ccc(C(F)(F)F)cn2)[C@@H](O)C1` [Compound 191], the IC50 was less than 1 nM. `Cc1cc(C(F)(F)F)cnc1N[C@@H]1CCN(S(=O)(=O)c2ccc(-c3cnc4[nH]cc(C#N)c4c3)cc2)C[C@@H]1O` [Compound 192]: the IC50 is less than 1 nM. The result for `N#Cc1n[nH]c2ncc(-c3ccc(S(=O)(=O)N4CC[C@@H](Nc5ccc(C(F)(F)F)cn5)[C@@H](O)C4)cc3)cc12` [Compound 193] reads less than 1 nM.

On to `O=S(=O)(c1ccc(-c2nnc(N3CCOCC3)o2)cc1)N1CC[C@@H](Nc2ccc(C(F)(F)F)cn2)[C@@H](O)C1` [Compound 194], for which the IC50 lay in the range of 10 to 1000 nM. The result for `CN(C)c1cc(-c2ccc(S(=O)(=O)N3CC[C@@H](Nc4ccc(C(F)(F)F)cn4)[C@@H](O)C3)cc2)cc(C(N)=O)n1` [Compound 196] reads less than 1 nM; that for `NC(=O)c1ncc(-c2ccc(S(=O)(=O)N3CC[C@@H](Nc4ccc(C(F)(F)F)cn4)[C@@H](O)C3)cc2)[nH]1` [Compound 197], 1 to 10 nM.

For the compound `NC(=O)c1cc(-c2ccc(S(=O)(=O)N3CC[C@@H](Nc4ccc(C(F)(F)F)cn4)[C@@H](O)C3)cc2)cnn1` [Compound 198], the IC50 was less than 1 nM. The same measure for `N#Cc1cc(-c2ccc(S(=O)(=O)N3CC[C@@H](Nc4ccc(C(F)(F)F)cn4)[C@@H](O)C3)cc2)cnn1` [Compound 199]: 1 to 10 nM. For `O=S(=O)(c1ccc(-c2cnnc(N3CCOCC3)c2)cc1)N1CC[C@@H](Nc2ccc(C(F)(F)F)cn2)[C@@H](O)C1` [Compound 200], the IC50 was less than 1 nM. Regarding `O=S(=O)(c1ccc(-c2cnnc(Cl)c2)cc1)N1CC[C@@H](Nc2ccc(C(F)(F)F)cn2)[C@@H](O)C1` [Compound 201], the IC50 was less than 1 nM. `NC(=O)c1cc(-c2ccc(S(=O)(=O)N3CC[C@@H](Nc4ccc(C(F)(F)F)cn4)[C@@H](O)C3)cc2)cc(N)n1` [Compound 202]: the IC50 is less than 1 nM. The same measure for `NC(=O)c1cc(-c2ccc(S(=O)(=O)N3CC[C@@H](Nc4ccc(C(F)(F)F)cn4)[C@@H](O)C3)cc2)cc(O)n1` [Compound 203]: less than 1 nM; for `Cc1cnc(C(N)=O)c(C)c1-c1ccc(S(=O)(=O)N2CC[C@@H](Nc3ccc(C(F)(F)F)cn3)[C@@H](O)C2)cc1` [Compound 204]: less than 1 nM; for `Cc1cnc(CO)c(C)c1-c1ccc(S(=O)(=O)N2CC[C@@H](Nc3ccc(C(F)(F)F)cn3)[C@@H](O)C2)cc1` [Compound 205]: 1 to 10 nM. The result for `Cc1cc(-c2ccc(S(=O)(=O)N3CC[C@@H](Nc4ccc(C(F)(F)F)cn4)[C@@H](O)C3)cc2)cc(C(N)=O)n1` [Compound 206] reads less than 1 nM; that for `NC(=O)Cc1cc(-c2ccc(S(=O)(=O)N3CC[C@@H](Nc4ccc(C(F)(F)F)cn4)[C@@H](O)C3)cc2)ccn1` [Compound 207], 1 to 10 nM; that for `O=C(O)c1cc(-c2ccc(S(=O)(=O)N3CC[C@@H](Nc4ccc(C(F)(F)F)cn4)[C@@H](O)C3)cc2)ccn1` [Compound 208], 10 to 1000 nM. Turning to `O=S(=O)(c1ccc(-c2cnc3[nH]ccc3c2Cl)cc1)N1CC[C@@H](Nc2ccc(C(F)(F)F)cn2)[C@@H](O)C1` [Compound 209], the IC50 is less than 1 nM. The result for `O=C1Nc2ncc(-c3ccc(S(=O)(=O)N4CC[C@@H](Nc5ccc(C(F)(F)F)cn5)[C@@H](O)C4)cc3)cc2C12CC2` [Compound 212] reads less than 1 nM. The result for `Cc1nnc(-c2cc(-c3ccc(S(=O)(=O)N4CC[C@@H](Nc5ccc(C(F)(F)F)cn5)[C@@H](O)C4)cc3)c(C)cn2)o1` [Compound 213] reads less than 1 nM; that for `COc1cc(-c2ccc(S(=O)(=O)N3CC[C@@H](Nc4ccc(C(F)(F)F)cn4)[C@@H](O)C3)cc2)cc(-c2nnc(C)o2)n1` [Compound 214], less than 1 nM; that for `Cc1c[nH]c(-c2cc(-c3ccc(S(=O)(=O)N4CC[C@@H](Nc5ccc(C(F)(F)F)cn5)[C@@H](O)C4)cc3)ccn2)n1` [Compound 215], 1 to 10 nM.

For the compound `Nc1n[nH]c2ccc(-c3ccc(S(=O)(=O)N4CC[C@@H](Nc5ccc(C(F)(F)F)cn5)[C@@H](O)C4)cc3)cc12` [Example 1, (3S,4R)-1-((4-(3-amino-1H-indazol-5-yl)phenyl)sulfonyl)-4-((5-(trifluoromethyl)pyridin-2-yl)amino)piperidin-3-ol], the IC50 is less than 1 nM.
